Results reported in the supplement of paper PMC13207355.
Where a name gives a salt, the structure may show the parent alone.

Legend:
Conditions in all cases: exposure time: 72 h
E31 [1] = patient-derived glioblastoma stem cells of proneural subtype; experiment: surviving fraction (nuclei count normalised to DMSO); higher = more cells surviving (less toxic)
E21 [2] = patient-derived glioblastoma stem cells of mesenchymal subtype; experiment: as above
E28 [3] = patient-derived glioblastoma stem cells of classical subtype; experiment: as above
E34 [4] = patient-derived glioblastoma stem cells of proneural subtype; experiment: as above
E57 [5] = patient-derived glioblastoma stem cells of mesenchymal subtype; experiment: as above
FT3469 [6] = normal neural stem cell line; experiment: as above
E13 [7] = patient-derived glioblastoma stem cells of classical subtype; experiment: as above
E31 [8] = experiment: phenotypic distance (Euclidean, principal components) from DMSO controls (arbitrary units); higher = stronger morphological change
E21 [9] = experiment: as above
E28 [10] = experiment: as above
E34 [11] = experiment: as above
E57 [12] = experiment: as above
FT3469 [13] = experiment: as above
E13 [14] = experiment: as above
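Wherever phenotypic distance (Euclidean, principal components) from DMSO controls is given: cell Painting imaging in 384-well plates, CellProfiler features reduced to at least 20 principal components, Euclidean distance versus same-plate DMSO vehicle wells (0.1% v/v), median over six images per well.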
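Wherever surviving fraction (nuclei count normalised to DMSO) is given: nuclei counted by high-content imaging of Hoechst-stained cells in laminin-coated 384-well plates, relative to 0.1% DMSO vehicle wells, with staurosporine as cell-death control.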

COc1cc2nc(N3CCN(C(=O)c4ccco4)CC3)nc(N)c2cc1OC [Prazosin hydrochloride]
Conditions | phenotypic distance | surviving fraction
E13 [7], 4.11523 nM | – | 1.11
E13 [7], 12.34567901 nM | – | 0.996
E13 [7], 37.037 nM | – | 1.07
E13 [7], 111.1111111 nM | – | 0.955
E13 [7], 333.333 nM | – | 1.04
E13 [7], 1000 nM | – | 1.03
E13 [7], 3000 nM | – | 0.815
E13 [14], 4.11523 nM | 0.601 | –
E13 [14], 12.34567901 nM | 3.49 | –
E13 [14], 37.037 nM | 2.1 | –
E13 [14], 111.1111111 nM | 0.55 | –
E13 [14], 333.333 nM | 0.666 | –
E13 [14], 1000 nM | 0.512 | –
E13 [14], 3000 nM | 2.04 | –
E21 [2], 4.11523 nM | – | 1.03
E21 [2], 12.34567901 nM | – | 1.03
E21 [2], 37.037 nM | – | 1
E21 [2], 111.1111111 nM | – | 1.04
E21 [2], 333.333 nM | – | 1.11
E21 [2], 1000 nM | – | 0.938
E21 [2], 3000 nM | – | 0.912
E21 [9], 4.11523 nM | 0.712 | –
E21 [9], 12.34567901 nM | 0.547 | –
E21 [9], 37.037 nM | 0.834 | –
E21 [9], 111.1111111 nM | 0.524 | –
E21 [9], 333.333 nM | 0.736 | –
E21 [9], 1000 nM | 0.384 | –
E21 [9], 3000 nM | 0.699 | –
E28 [3], 4.11523 nM | – | 1.07
E28 [3], 12.34567901 nM | – | 0.881
E28 [3], 37.037 nM | – | 1.17
E28 [3], 111.1111111 nM | – | 0.956
E28 [3], 333.333 nM | – | 1.2
E28 [3], 1000 nM | – | 0.907
E28 [3], 3000 nM | – | 0.976
E28 [10], 4.11523 nM | 0.643 | –
E28 [10], 12.34567901 nM | 0.664 | –
E28 [10], 37.037 nM | 1.1 | –
E28 [10], 111.1111111 nM | 0.589 | –
E28 [10], 333.333 nM | 0.766 | –
E28 [10], 1000 nM | 1.03 | –
E28 [10], 3000 nM | 0.426 | –
E31 [1], 4.11523 nM | – | 0.988
E31 [1], 12.34567901 nM | – | 1.19
E31 [1], 37.037 nM | – | 1.13
E31 [1], 111.1111111 nM | – | 1.03
E31 [1], 333.333 nM | – | 1.04
E31 [1], 1000 nM | – | 1.07
E31 [1], 3000 nM | – | 1
E31 [8], 4.11523 nM | 0.642 | –
E31 [8], 12.34567901 nM | 0.488 | –
E31 [8], 37.037 nM | 0.739 | –
E31 [8], 111.1111111 nM | 0.653 | –
E31 [8], 333.333 nM | 0.984 | –
E31 [8], 1000 nM | 0.431 | –
E31 [8], 3000 nM | 0.892 | –
E34 [4], 4.11523 nM | – | 1.04
E34 [4], 12.34567901 nM | – | 0.994
E34 [4], 37.037 nM | – | 1.14
E34 [4], 111.1111111 nM | – | 0.986
E34 [4], 333.333 nM | – | 1.11
E34 [4], 1000 nM | – | 0.837
E34 [4], 3000 nM | – | 1.04
E34 [11], 4.11523 nM | 0.522 | –
E34 [11], 12.34567901 nM | 0.593 | –
E34 [11], 37.037 nM | 0.611 | –
E34 [11], 111.1111111 nM | 0.647 | –
E34 [11], 333.333 nM | 0.638 | –
E34 [11], 1000 nM | 0.628 | –
E34 [11], 3000 nM | 0.776 | –
E57 [5], 4.11523 nM | – | 1.07
E57 [5], 12.34567901 nM | – | 1.02
E57 [5], 37.037 nM | – | 1.09
E57 [5], 111.1111111 nM | – | 0.961
E57 [5], 333.333 nM | – | 1
E57 [5], 1000 nM | – | 0.915
E57 [5], 3000 nM | – | 0.97
E57 [12], 4.11523 nM | 0.592 | –
E57 [12], 12.34567901 nM | 0.576 | –
E57 [12], 37.037 nM | 0.642 | –
E57 [12], 111.1111111 nM | 0.745 | –
E57 [12], 333.333 nM | 0.475 | –
E57 [12], 1000 nM | 0.697 | –
E57 [12], 3000 nM | 0.95 | –
FT3469 [6], 4.11523 nM | – | 1
FT3469 [6], 12.34567901 nM | – | 1.14
FT3469 [6], 37.037 nM | – | 1.03
FT3469 [6], 111.1111111 nM | – | 1.05
FT3469 [6], 333.333 nM | – | 1.14
FT3469 [6], 1000 nM | – | 1.12
FT3469 [6], 3000 nM | – | 1.06
FT3469 [13], 4.11523 nM | 0.634 | –
FT3469 [13], 12.34567901 nM | 0.798 | –
FT3469 [13], 37.037 nM | 0.909 | –
FT3469 [13], 111.1111111 nM | 0.541 | –
FT3469 [13], 333.333 nM | 0.436 | –
FT3469 [13], 1000 nM | 0.748 | –
FT3469 [13], 3000 nM | 0.762 | –

NC(=O)c1cccc2cn(-c3ccc([C@@H]4CCCNC4)cc3)nc12 [Niraparib]
Conditions | phenotypic distance | surviving fraction
E13 [7], 4.1 nM | – | 0.923
E13 [7], 12.3 nM | – | 0.914
E13 [7], 37 nM | – | 0.942
E13 [7], 111.1 nM | – | 0.857
E13 [7], 333.3 nM | – | 0.967
E13 [7], 1000 nM | – | 0.966
E13 [7], 3000 nM | – | 0.811
E13 [14], 4.1 nM | 6.4 | –
E13 [14], 12.3 nM | 0.843 | –
E13 [14], 37 nM | 0.647 | –
E13 [14], 111.1 nM | 1.65 | –
E13 [14], 333.3 nM | 1.62 | –
E13 [14], 1000 nM | 0.782 | –
E13 [14], 3000 nM | 1.33 | –
E21 [2], 4.1 nM | – | 0.89
E21 [2], 12.3 nM | – | 0.869
E21 [2], 37 nM | – | 0.882
E21 [2], 111.1 nM | – | 0.923
E21 [2], 333.3 nM | – | 0.916
E21 [2], 1000 nM | – | 0.927
E21 [2], 3000 nM | – | 0.942
E21 [9], 4.1 nM | 1 | –
E21 [9], 12.3 nM | 1.03 | –
E21 [9], 37 nM | 0.998 | –
E21 [9], 111.1 nM | 0.66 | –
E21 [9], 333.3 nM | 0.751 | –
E21 [9], 1000 nM | 3.25 | –
E21 [9], 3000 nM | 0.988 | –
E28 [3], 4.1 nM | – | 0.905
E28 [3], 12.3 nM | – | 0.975
E28 [3], 37 nM | – | 0.875
E28 [3], 111.1 nM | – | 0.868
E28 [3], 333.3 nM | – | 0.922
E28 [3], 1000 nM | – | 0.84
E28 [3], 3000 nM | – | 0.603
E28 [10], 4.1 nM | 0.932 | –
E28 [10], 12.3 nM | 0.689 | –
E28 [10], 37 nM | 1.02 | –
E28 [10], 111.1 nM | 0.861 | –
E28 [10], 333.3 nM | 0.791 | –
E28 [10], 1000 nM | 1.23 | –
E28 [10], 3000 nM | 2.78 | –
E31 [1], 4.1 nM | – | 1.04
E31 [1], 12.3 nM | – | 0.782
E31 [1], 37 nM | – | 1
E31 [1], 111.1 nM | – | 0.896
E31 [1], 333.3 nM | – | 0.939
E31 [1], 1000 nM | – | 0.886
E31 [1], 3000 nM | – | 0.64
E31 [8], 4.1 nM | 0.907 | –
E31 [8], 12.3 nM | 1.29 | –
E31 [8], 37 nM | 1.19 | –
E31 [8], 111.1 nM | 0.995 | –
E31 [8], 333.3 nM | 0.875 | –
E31 [8], 1000 nM | 0.834 | –
E31 [8], 3000 nM | 2.29 | –
E34 [4], 4.1 nM | – | 0.963
E34 [4], 12.3 nM | – | 0.904
E34 [4], 37 nM | – | 0.902
E34 [4], 111.1 nM | – | 0.971
E34 [4], 333.3 nM | – | 0.861
E34 [4], 1000 nM | – | 0.924
E34 [4], 3000 nM | – | 0.737
E34 [11], 4.1 nM | 3.06 | –
E34 [11], 12.3 nM | 0.78 | –
E34 [11], 37 nM | 0.587 | –
E34 [11], 111.1 nM | 0.691 | –
E34 [11], 333.3 nM | 0.654 | –
E34 [11], 1000 nM | 0.893 | –
E34 [11], 3000 nM | 1.77 | –
E57 [5], 4.1 nM | – | 0.996
E57 [5], 12.3 nM | – | 0.917
E57 [5], 37 nM | – | 0.93
E57 [5], 111.1 nM | – | 0.833
E57 [5], 333.3 nM | – | 0.951
E57 [5], 1000 nM | – | 0.921
E57 [5], 3000 nM | – | 0.826
E57 [12], 4.1 nM | 0.553 | –
E57 [12], 12.3 nM | 0.936 | –
E57 [12], 37 nM | 0.684 | –
E57 [12], 111.1 nM | 0.604 | –
E57 [12], 333.3 nM | 0.582 | –
E57 [12], 1000 nM | 0.667 | –
E57 [12], 3000 nM | 1.51 | –
FT3469 [6], 4.1 nM | – | 0.84
FT3469 [6], 12.3 nM | – | 0.901
FT3469 [6], 37 nM | – | 0.853
FT3469 [6], 111.1 nM | – | 0.918
FT3469 [6], 333.3 nM | – | 0.931
FT3469 [6], 1000 nM | – | 0.916
FT3469 [6], 3000 nM | – | 0.743
FT3469 [13], 4.1 nM | 1.72 | –
FT3469 [13], 12.3 nM | 0.905 | –
FT3469 [13], 37 nM | 1.21 | –
FT3469 [13], 111.1 nM | 0.978 | –
FT3469 [13], 333.3 nM | 0.746 | –
FT3469 [13], 1000 nM | 1.12 | –
FT3469 [13], 3000 nM | 2.12 | –
